Assay results from patent US9884862B2, “Pyridopyrimidinedione derivatives” (Novartis AG, priority 2014, dated 2018).
Read-outs that look alike come from different tables or passages of the source.

Experiments:
CFTR-Y122X = CFTR-Y122X assay (dual reporter isogenic Hek293 cell lines, Renilla luminescence readthrough); format: cell-based; conditions: for Emax: read-out: Amax
Text: Activity of compounds of the present invention was examined in recombinant, dual reporter isogenic Hek293 cell lines (“CFTR-Y122X assay”). The engineered reporter constructs contained the 18 bp sequence stretch corresponding to a common Y122X PTC mutation in CFTR class I mutant patients (see Sermet-Gaudelus, BMC Medicine, 2007, 5(5)). Instead of a tyrosine (Y) in position 122 of the CFTR protein a TGA stop codon interrupts the open reading frame (Y122X) of the corresponding mRNA. This TGA stop codon triplet (followed by the pyrimidine base cytosine) is permissive to aminoglycoside mediated translational readthrough which served as positive control for high throughput screening. A corresponding TAA stop codon variant and a wildtype non mutated construct was used for confirmation and counter screening. The CFTR sequence was sandwiched between an eGFP reporter, and a triple myc tag sequence fused to a full length Renilla reporter. All sequences, including an intron containing one positioned pre-eGFP (b-globin intron) were cloned in frame. The corresponding expression constructs were stably expressed in the isogenic HEK-R4 cell host (Invitrogen Incorp.) and selected by blasticidin resistance. The isogenic integration of the construct minimizes gene dose effects and improves assay reproducibility. Stably integrated single cell derived clones were selected and characterized for aminoglycoside mediated readthrough. […] Readthrough of Y122X accumulates an intracellular localized fusion protein approximately 65.5 kDa in size as controlled by western blot analysis and immunofluorescence using an anti-renilla antibody. The eGFP reporter pre-PTC mutation serves as visual control for genetic stability of the screening clones and minimizes protein degradation of small fusion protein amounts. In the assay, compound concentration was 10 μM. In miniaturized 1536 well format 2000 cells were dispensed in 4 μl/well and incubated for 24 h at 37° C., 5% CO2. 40 nl compounds were placed on the cells with control wells containing 1 ul Paramomycin and 14.4 mM final concentration. Compounds were incubated for 24 h. Renilla Glo substrate (2.5 ul) was added and plates were centrifuged and processed for luminescence measurement using various readers. Activity calculation was done using the equation: A1(%)=100*(S−NC)/(AC−NC) where AC, NC and S correspond to active controls (injection of Stimulation buffer=100% stimulation), neutral controls (buffer injection which Iloprost EC10) and screening samples (S). NC corresponds to 0% activity whereas AC is 100% activity (14 mM paromomycin). False positive artifacts were removed in confirmation and validation screening using the same assay format followed by counterscreening using the respective wildtype construct (w/o PTC mutation) cell model. Compounds were tested up to 100 μM compound concentration.

[1] = test system: alpha-L-Iduronidase W402X in Hurler patient derived fibroblast cells; assay: Hurler patient derived fibroblast cell cultures, restored alpha-L-iduronidase activity (W402X readthrough); format: cell-based, human; conditions: 8 days incubation, highest concentration 20 uM; for Emax / AC50: Homo sapiens, Fibroblast, 192 h; for Emax: read-out: Amax; for AC50: 8 point dilutions
Text: Activity of compounds of the present invention was examined in patient derived fibroblast cells. The genotyped cells were derived from the Coriell Institute (# GM00798) and contain an in frame homozygous TGG to TAG change at nucleotide 1293 of exon 9 which results in a W402X mutation. The W402X mutation is one of the most common Hurler syndromes causing loss of function mutation. Between 60-70% of genotyped patients contain either the Q70X and/or the W402X in mutation and are classified as severe MPSI patients. This TAG stop codon triplet is permissive to aminoglycoside mediated translational readthrough which served as activity control for compound testing. Readthrough of W402X restores alpha-L-Iduronidase activity which results in removal of lysosomal accumulated Glycosaminoglycan's. Iduronidase expression could neither be detected by Taqman PCR© nor by enzyme activity or ELISA methods without compound stimulation. Compounds were tested in concentration response mode. Therefore 5000 patient cells/40 ul/well in 384 well plates were used. Compound dilutions were derived from freshly prepared 10 mM compound stock solutions. Highest concentration was 20 uM and subsequently diluted 1: 3.16 (8 point dilutions, n=4). Final DMSO concentration was below 0.5% and tested to be without effect on cell viability, growth and readthrough. Cells were incubated for 8 days with one cell media and compound exchange at day 3. Thereafter cell media was removed and cells were lysed (0.4 M Sodiumformate, 0.1% NaN3, 0.9% NaCl, 0.2% Triton, pH 3.5). Restored alpha-L-iduronidase activity in cell lysates was measured with the fluorescent 4-MU iduronide substrate (5 ul of 0.4 mM 4 Methylumbelliferyl alpha-L-iduronide/well) after 48 h incubation. Paromomycin was used as reference control (14 mM=100% control).

[2] = Homo sapiens, HEK293, 24 h, nonsense mutation suppression, 100% = 14 mM paromomycin, 24 h incubation, tested up to 100 μM
[3] = Homo sapiens, HEK293, 24 h, nonsense mutation suppression, 24 h incubation, tested up to 100 μM
[4] = 14 mM paromomycin = 100% control

| SMILES | Emax (CFTR-Y122X; [2]) [%] | AC50 (CFTR-Y122X; [3]) [µM] | Emax [1, 4] [%] | AC50 [1] [µM] | also measured |
| --- | --- | --- | --- | --- | --- |
| CC1CCc2[nH]c3nc(C(C)C)n(-c4ccccc4)c(=O)c3c(=O)c2C1 (stereo not shown) [Example 3.8, 2-isopropyl-7-methyl-3-phenyl-6,7,8,9-tetrahydropyrimido[4,5-b]quinoline-4,5(3H,10H)-dione] | 219 | 12 | 12 | 1.3 |  |
| CC1CCc2c(c(=O)c3c(=O)n(-c4ccccc4)c(C(C)C)nc3n2C)C1 (stereo not shown) [Example 3.10, 2-isopropyl-7,10-dimethyl-3-phenyl-6,7,8,9-tetrahydropyrimido[4,5-b]quinoline-4,5(3H,10H)-dione] | 237 | 12 | 6 |  |  |
| NC[C@@H]1O[C@H](O[C@H]2[C@@H](O)[C@H](O[C@@H]3[C@@H](O)[C@H](N)C[C@H](N)[C@H]3O[C@H]3O[C@H](CO)[C@@H](O)[C@H](O)[C@H]3N)O[C@@H]2CO)[C@H](N)[C@@H](O)[C@@H]1O [paromomycin, reference compound] |  |  |  |  | EC50 (CFTR-Y122X; Homo sapiens, HEK293, clone pursued for HTS assay development, read-out: EC50 (readthrough response of selected clone)): 1500 µM |
| CC(C)c1nc2c(c(=O)c3cc(Cl)sc3n2C)c(=O)n1-c1ccccc1 [Example 2.19] | 104 | 15 | 16 |  |  |
| Cc1csc2c(=O)c3c(=O)n(-c4ccccc4)c(C(C)C)nc3[nH]c12 [Example 2.21, 2-isopropyl-8-methyl-3-phenylthieno[2′,3′:5,6]pyrido[2,3-d]pyrimidine-4,5(3H,9H)-dione] | 180 | 14 | 25 |  |  |
| CC1CCc2c(n(C)c3nc(C(C)C)n(-c4ccccc4)c(=O)c3c2=O)C1 (stereo not shown) [Example 3.9, 2-isopropyl-8,10-dimethyl-3-phenyl-6,7,8,9-tetrahydropyrimido[4,5-b]quinoline-4,5(3H,10H)-dione] | 11 | 11 | 15 |  |  |
| CC(C)c1nc2c(c(=O)c3c(n2C)CCC3)c(=O)n1-c1ccccc1 [Example 3.4, 2-isopropyl-9-methyl-3-phenyl-7,8-dihydro-3H-cyclopenta[5,6]pyrido[2,3-d]pyrimidine-4,5(6H,9H)-dione] | 40 | 18 | 8 | 1.4 |  |
| CC(C)c1nc2c(c(=O)c3c(n2C)CCCC3)c(=O)n1-c1ccccc1 [Example 3.11, 2-isopropyl-10-methyl-3-phenyl-6,7,8,9-tetrahydropyrimido[4,5-b]quinoline-4,5(3H,10H)-dione] | 137 | 22 | 17 |  |  |
| CC(C)c1nc2c(c(=O)c3c(n2C)CCCCC3)c(=O)n1-c1ccccc1 [Example 3.2, 2-isopropyl-11-methyl-3-phenyl-7,8,9,10-tetrahydro-3H-cyclohepta[5,6]pyrido[2,3-d]pyrimidine-4,5(6H,11H)-dione] | 213 | 11 | 83 | 12 |  |
| CCSc1nc2c(c(=O)n1-c1ccccc1)C(=O)C1CCCC1N2 (stereo not shown) [2-(ethylthio)-3-phenyl-5a,6,7,8,8a,9-hexahydro-3H-cyclopenta[5,6]pyrido[2,3-d]pyrimidine-4,5-dione] |  |  |  |  | suppression relative to paromomycin reference activity (CFTR-Y122X; at the above dose ranges (up to 100 μM)): less than 5% |
| Cc1c(C)n(C)c2nc(C(C)C)n(-c3ccccc3)c(=O)c2c1=O [Example 3.7, 2-isopropyl-6,7,8-trimethyl-3-phenylpyrido[2,3-d]pyrimidine-4,5(3H,8H)-dione] | 61 | 22 | 14 |  |  |
| Cn1c2nc(C3CCC3)n(-c3ccccc3)c(=O)c2c(=O)c2cc(Cl)sc21 [Example 2.18, 7-chloro-2-cyclobutyl-9-methyl-3-phenylthieno[3′,2′:5,6]pyrido[2,3-d]pyrimidine-4,5(3H,9H)-dione] | 154 | 3.3 | 200 | 11 |  |
| Cc1[nH]c2nc(C(C)C)n(-c3ccccc3)c(=O)c2c(=O)c1C [Example 3.5, 2-isopropyl-6,7-dimethyl-3-phenylpyrido[2,3-d]pyrimidine-4,5(3H,8H)-dione] | 114 | 17 | 9 |  |  |
| CC(C)c1nc2c(c(=O)c3sccc3n2C)c(=O)n1-c1ccccc1 [Example 1.1, 2-isopropyl-9-methyl-3-phenylthieno[2′,3′:5,6]pyrido[2,3-d]pyrimidine-4,5(3H,9H)-dione] |  |  | 25 | 12 | Emax (CFTR-Y122X; Homo sapiens, HEK293, nonsense mutation suppression, 100% = 14 mM paromomycin, 24 h incubation, tested up to 100 μM): 247%; AC50 (CFTR-Y122X; Homo sapiens, HEK293, nonsense mutation suppression, 24 h incubation, tested up to 100 μM): 2.2 µM |
| CC(C)c1nc2[nH]c3c(c(=O)c2c(=O)n1-c1ccccc1)CCCCC3 [Example 3.1, 2-isopropyl-3-phenyl-7,8,9,10-tetrahydro-3H-cyclohepta[5,6]pyrido[2,3-d]pyrimidine-4,5(6H,11H)-dione] | 190 | 13 | 9 | 1.4 |  |
| Cc1scc2c(=O)c3c(=O)n(-c4ccccc4)c(C4CCC4)nc3n(C)c12 [Example 2.16, 2-cyclobutyl-8,9-dimethyl-3-phenylthieno[3′,4′:5,6]pyrido[2,3-d]pyrimidine-4,5(3H,9H)-dione] | 199 | 4.6 | 150 | 12.3 |  |
| Cc1cc2c(=O)c3c(=O)n(-c4ccccc4)c(C(C)C)nc3n(C)c2s1 [Example 2.4, 2-isopropyl-7,9-dimethyl-3-phenylthieno[3′,2′:5,6]pyrido[2,3-d]pyrimidine-4,5(3H,9H)-dione] |  | 11 |  |  | Amax (CFTR-Y122X; nonsense mutation suppression, 100% = 14 mM paromomycin, 24 h incubation, tested up to 100 μM): 299%; Amax [1, 4]: 13% |
| CC(C)c1nc2[nH]c3ccsc3c(=O)c2c(=O)n1-c1ccccc1 [Example 2.7, 2-isopropyl-3-phenylthieno[2′,3′:5,6]pyrido[2,3-d]pyrimidine-4,5(3H,9H)-dione] | 332 | 6.9 | 51 | 10 |  |
| Cc1cc2c(s1)c(=O)c1c(=O)n(-c3ccccc3)c(C(C)C)nc1n2C [Example 2.3, 2-isopropyl-7,9-dimethyl-3-phenylthieno[2′,3′:5,6]pyrido[2,3-d]pyrimidine-4,5(3H,9H)-dione] | 169 | 14 | 39 |  |  |
| Cc1c(C)n(C)c2nc(C3CCC3)n(-c3ccccc3)c(=O)c2c1=O [Example 3.13, 2-cyclobutyl-6,7,8-trimethyl-3-phenylpyrido[2,3-d]pyrimidine-4,5(3H,8H)-dione] | 297 | 9.2 | 34 |  |  |
| CC(C)c1nc2c(c(=O)c3sc(Cl)cc3n2C)c(=O)n1-c1ccccc1 [Example 2.20, 7-chloro-2-isopropyl-9-methyl-3-phenylthieno[2′,3′:5,6]pyrido[2,3-d]pyrimidine-4,5(3H,9H)-dione] | 70 | 19 | 7 |  |  |
